Test results as given in ChEMBL document CHEMBL5727219, “Kinase inhibitors and method of treating cancer” (2019).

Experiment: Inhibition Assay: PLK3 inhibition was determined using the Z-Lyte assay kit from Invitrogen (cat #PV3802). The assay was performed using the recommended manufacturer's instructions with 100 μM ATP and 21 nM PLK3 (Invitrogen cat #PV3812). The % inhibition values were determined according to the manufacturer's directions and IC50 values were obtained using a non-linear 4 point logistic curve fit (XLfit4, IDBS).

IC50	Compound
in the range around 2 µM	CCc1ccc2c(c1)[C@]1(C[C@H]1c1ccc3c(-c4cccc(CN5CCOCC5)c4)n[nH]c3c1)C(=O)N2
in the range around 2 µM	COc1ccc2c(c1)[C@]1(C[C@H]1c1ccc3c(-c4cccc(CN5CCOCC5)c4)n[nH]c3c1)C(=O)N2 (relative stereo)
in the range around 2 µM	COc1ccc2c(c1)[C@]1(C[C@H]1c1ccc3c(-c4ccc(CO)cc4)n[nH]c3c1)C(=O)N2 (relative stereo)
in the range around 2 µM	COc1ccc2c(c1)[C@]1(C[C@H]1c1ccc3c(-c4cccc(CN5CCCCC5)c4)n[nH]c3c1)C(=O)N2 (relative stereo)
in the range around 2 µM	COc1ccc2c(c1)[C@]1(C[C@H]1c1ccc3c(-c4cccc(N5CCNCC5)c4)n[nH]c3c1)C(=O)N2 (relative stereo)
in the range around 2 µM	COCCN1C(=O)[C@@]2(C[C@H]2c2ccc3c(/C=C/c4ccc(CN(C)C)cc4)n[nH]c3c2)c2ccccc21
